# Measurements from US11911386B2, “Methods of treating B-cell proliferative disorder” (BeiGene Switzerland GmbH, priority 2022, dated 2024).
# Values joined by “and” are separate entries in the source; they are usually repeats but may differ in a detail not shown here. Equal entries are not always repeated.
# Legend:
# [1] = tested on: previously treated B-cell malignancies (CLL/SLL, WM, MCL, MZL); experiment: Phase 2 (NCT04116437): investigator-assessed efficacy (ORR, DCR, DOR, PFS, OS); assay type: in vivo, human; settings: for Months to BOR, median: patients who responded
# Description: PFS and patient-reported outcomes were assessed as secondary efficacy endpoints.
# The study's secondary endpoints were: • ORR, defined as the proportion of patients achieving a best overall response (BOR) of CR, CRi, nodular partial response, partial response (PR), or partial response with lymphocytosis (PR-L) in patients with CLL; CR or PR in patients with SLL, MCL, or MZL; and CR, very good partial response, PR, or minor response (MR) in patients with WM before initiation of subsequent antineoplastic therapy. • DCR, defined as the proportion of patients who attain a BOR of stable disease or better before initiation of subsequent antineoplastic therapy. • Duration of response (DOR), defined as time from […] to date of first documented disease progression or death, whichever occurs first. • PFS, defined as time from first dose date to date of first documented disease progression or death, whichever occurs first. • Time to first response, defined as time from first dose to date of first qualifying response. For example, for a patient who attained a PR-L followed by PR for subsequent assessments, time to first response was the time from first dose to date of first PR-L. • Time to BOR, defined as time from first dose to date of best of overall response.
# A patient's BOR was the best response recorded throughout the study prior to initiation of any new anticancer therapy and data cutoff. In some cases, the BOR could only be stable disease (e.g., if the patient was in CR at study entry) because patients were not required to progress prior to entering the study. • ORR was the proportion of patients who attained a BOR of: • PR-L or better (CR, CRi, nodular partial response, PR, PR-L) in patients with CLL; • PR or better (CR, PR) in patients with SLL, MCL, and MZL; • MR or better (CR, very good partial response, PR, MR) in patients with WM.
# Per the Safety Analysis Set, patients without postbaseline disease assessment were considered non-responders. DCR was summarized with 95% exact confidence intervals. A sensitivity analysis of DCR was conducted in patients in the Efficacy Evaluable Set; patients who died or discontinued study prior to their first disease assessment due to adverse events were classified as not achieving disease control. An additional sensitivity analysis of DCR excluded patients with low disease burden, as defined above.
# The PFS distribution and its related metrics such as median PFS and landmark rates were estimated using the Kaplan-Meier method with censoring rules as defined in Table 29.
# Zanubrutinib capsules were taken orally with water and with or without food. Imaging and laboratory assessments at study entry were considered baseline for response assessment; patients were not required to meet criteria for initiation of treatment at study entry.
# [2] = tested on: panel of 370 kinases; experiment: Kinome profiling at 100xIC50 (BTK) concentrations; assay type: biochemical; settings: 100×IC50 (BTK) concentration
# [3] = cited from earlier work
# [4] = Cohort 1 (prior ibrutinib), n = 57
# [5] = Cohort 2 (prior acalabrutinib + ibrutinib), n = 7
# [6] = Efficacy Evaluable Set, 68 patients
structure (smiles),measurement,setting,value
"C=CC(=O)N1CCC([C@@H]2CCNc3c(C(N)=O)c(-c4ccc(Oc5ccccc5)cc4)nn32)CC1 [zanubrutinib, (S)-7-(1-acryloylpiperidin-4-yl)-2-(4-phenoxyphenyl)-4,5,6,7-tetrahydropyrazolo[1,5-a]pyrimidine-3-carboxamide]",DCR,[1]; 160 mg bid group,95.0%
same,ORR,[1]; 160 mg bid group,70.0%
same,DCR,[1]; 320 mg qd group,91.7%
same,ORR,[1]; 320 mg qd group,54.2%
same,BOR PD,[1]; Cohort 1,1 (1.8) n (%)
same,BOR PR-L or better,[1]; Cohort 1,36 (63.2) n (%)
same,BOR SD,[1]; Cohort 1,18 (31.6) n (%)
same,"Months to first OR, median",[1]; Cohort 1,2.92 months
same,DCR (SD or better),[1]; [4],"(94.7, 85.4-98.9) %"
same,ORR (better than SD),[1]; [4],"(63.2, 49.3-75.6) %"
same,"Months to BOR, median",[1]; Cohort 1,5.5 months
same,BOR PD,[1]; Cohort 2,1 (14.3) n (%)
same,BOR PR-L or better,[1]; Cohort 2,5 (71.4) n (%)
same,BOR SD,[1]; Cohort 2,1 (14.3) n (%)
same,"Months to first OR, median",[1]; Cohort 2,3.02 months
same,DCR (SD or better),[1]; [5],"(85.7, 42.1-99.6) %"
same,ORR (better than SD),[1]; [5],"(71.4, 29.0-96.3) %"
same,"Months to BOR, median",[1]; Cohort 2,7.9 months
same,BOR better than stable disease (ORR),[1]; [6],67.6%
same,BOR of PR,[1]; [6],66.2%
same,BOR of stable disease or better (DCR),[1]; [6],95.6%
same,BOR PD,[1]; Total,3.1 n (%) and 2 (3.1) n (%)
same,BOR PR-L or better,[1]; Total,41 (64.1) n (%)
same,BOR SD,[1]; Total,29.7 n (%) and 19 (29.7) n (%)
same,"Months to first OR, median",[1]; Total,2.96 months
same,"Months to BOR, median",[1]; Total,5.6 months
same,Median DOR,[1]; additional analysis,not reached
same,Median PFS,[1]; additional analysis,not reached
same,18-month event-free PFS rate,"[1]; additional analysis, 67 patients",83.8%
same,Chance of being alive after 24 months,[1]; all patients,89.3%
same,Estimated probability of responding for at least 12 months,[1]; all patients,91.8%
same,Median DOR,[1]; all patients,not reached
same,ORR,[1]; excluding eight patients ineligible for PR due to low baseline disease burden,73.2%
same,12-month event-free DOR rate,[1]; in vivo,95.0%
same,Median time to first response (better than SD),[1]; in vivo,3.0 months
same,Median PFS,[1]; overall,not reached
same,PFS event-free rate at 18 months,[1]; overall (clinical study report cut-off),80.4%
same,Estimated probability of responding for at least 12 months,[1]; patients with WM,100%
same,PFS event-free rate at 18 months,[1]; patients with WM,100%
same,BOR better than stable disease,"[1]; patients with WM, 11 patients",90.9%
same,BOR of stable disease or better,"[1]; patients with WM, 11 patients",100%
same,Very good partial response,"[1]; patients with WM, 11 patients",45.5%
same,Off-target kinases inhibited,[2],seven
same,Median Tmax,[3]; oral administration,2 h
same,Mean terminal elimination half-life (t1/2),[3]; patients with B-cell malignancies,2 to 4 h
same,Mean t1/2,[3]; previous clinical DDI study in healthy volunteers,6.8 h
